Laboratory results reported in US7662968B2, “Process for preparing lansoprazole” (KRKA tovarna zdravil, d.d.., priority 2005, dated 2010).
Where “and” joins values, the source holds several entries; their conditions need not be identical. Equal values may be shown once.

Legend:
[1] = BET-surface area determination (nitrogen desorption, BET FlowSorb II 2300); type: physicochemical; conditions: 30 vol. % nitrogen / 70 vol. % helium at 77 K
Procedure: Unless otherwise noted, the BET-surface areas of the produced lansoprazole are determined by calculation from desorption data of nitrogen obtained on a BET FlowSorb II 2300 (Micromeritics Instrument Corp., USA) using a mixture of 30 vol. % nitrogen and 70 vol. % helium at 77 K.

[2] = Release of lansoprazole from pellets (dissolution, Ph. Eur. Paddle method); type: physicochemical; conditions: paddle 100 rpm, after one hour in artificial gastric juice pH 1.2, FIG. 1; for release of lansoprazole from pellets (comparison in words): phosphate buffer pH 6.8, 37° C.
Procedure: The release of lansoprazole was spectrophotometrically determined using Hewlett Packard 8452 A Diode array spectrophotometer and automatic sampling system Multicell Transport System. Dissolution profiles were obtained at 37° C. using 900 ml phosphate buffer solution having pH 6.8 and Ph. Eur. Paddle method (100 rpm). Before analysis, the pellet samples were treated with artificial gastric juice (500 ml) having a pH of 1.2 for one hour, washed and quantitatively transferred into the phosphate buffer. […] Preferably more than 80%, more preferably more than 85% and most preferred more than 90% of lansoprazole are released from the compositions according to the invention within 30 minutes.
If a lansoprazole prepared according to example 4 having a BET-surface area of 4.76 m^2/g is used, more than 90% of the drug is released within the first 30 minutes (upper curve).

[3] = lansoprazole form A as obtained after purification and drying

Structure (SMILES)	BET-surface area [1, 3]	drug released ([2]; pellets prepared according to Example 8, within the first 30 minutes, 900 ml phosphate buffer pH 6.8, 37° C.)	release of lansoprazole from pellets (comparison in words) ([2]; listed as lansoprazole having a BET-surface area of 4.67 m^2/g)	BET-surface area ([1]; lansoprazole form A further milled) [m^2/g]	release of lansoprazole from pellets (comparison in words) [2]
Cc1c(OCC(F)(F)F)ccnc1C[S+]([O-])c1nc2ccccc2[nH]1 (centres unmarked) [Example 4, 2-[[[3-methyl-4-(2,2,2-trifluoroethoxy)-2-pyridinyl]methyl]sulfinyl]-1H-benzimidazole]	4.67 m^2/g and 4.76 m^2/g	more than 90%	clearly faster	–	–
Cc1c(OCC(F)(F)F)ccnc1C[S+]([O-])c1nc2ccccc2[nH]1 (centres unmarked) [Example 3, 2-[[[3-methyl-4-(2,2,2-trifluoroethoxy)-2-pyridinyl]methyl]sulfinyl]-1H-benzimidazole]	0.25 m^2/g	–	–	0.87	clearly smaller release
Cc1c(OCC(F)(F)F)ccnc1C[S+]([O-])c1nc2ccccc2[nH]1 (centres unmarked) [Example 5, 2-[[[3-methyl-4-(2,2,2-trifluoroethoxy)-2-pyridinyl]methyl]sulfinyl]-1H-benzimidazole]	1.0 m^2/g and 1.00 m^2/g	–	–	–	clearly smaller release
